US20240350506A1, “PREPARATION OF HISTONE DEACETYLASE INHIBITOR, AND PREPARATION METHOD THEREFOR AND USE THEREOF” (CHENGDU ZENITAR BIOMEDICAL TECHNOLOGY CO., LTD., priority 2021, published 2024)
Where a name gives a salt, the structure may show the parent alone. Read-outs that look alike come from different tables or passages of the source. Each block holds one compound with its values, some of them ahead of it.

Tests used:
[1] = Phase solubility of PM in in-situ basic salt-forming agents (arginine, meglumine); assay type: physicochemical; conditions: API saturated; for solubility thermodynamic: aqueous with cosolvent or surfactant or cyclodextrin, thermodynamic from solid, read-out: Drug concentration
Experimental: (§1) According to the pH guidance standard for injection, the optimal pH range for injection was 4-9.
(§2) Then, excessive PM raw materials were added and dissolved under ultrasound until saturation. A clear saturated solution was filtered out over a 0.22 μm membrane and transferred into a centrifuge tube. The concentration (mg/mL) and purity (0%) of dissolved PM raw materials were detected by HPLC, and then, whether there was drug precipitation was observed using a clarity detector after being stored in a refrigerator at 4° C. in dark for one day.

[2] = Phase solubility of PM in cyclodextrins (HP-β-CD, SBE-β-CD); assay type: physicochemical; conditions: API saturated; for Storing at 4° C. for one day: cell wraps ('sediment')
Experimental: as §1
as §2, with “excess” for “excessive”, “(%)” for “(0%)”

[3] = system: Human Burkitt's lymphoma Daudi cell lines; assay: Pharmacodynamic experiment on subcutaneously transplanted tumor, Daudi, in NOD/SCID mice; assay type: in vivo; conditions: 10 mg/kg i.v. three times a week (LBH589 dose), female NOD/SCID mice, day 32
Experimental: Establishment of subcutaneously transplanted tumor model: Human Burkitt's lymphoma Daudi cell lines were in vitro cultured in RPMI-1640 medium containing 10% fetal bovine serum, 100 U/mL penicillin, and 100 μg/mL streptomycin. The cells in logarithmic growth phase were selected, and washed three times with PBS buffer under sterile conditions. The single cell suspension was diluted with PBS buffer to 2×10^8 cells/mL for future use. […], 0.1 mL of single cell suspension was taken, and then subcutaneously inoculated into the back of female NOD/SCID mice with a weight of >20 g. Grouping and treatment: When the volume of the tumor reached 100-200 mm^3 or above (the measurement and calculation method of tumor volume (TV): TV (mm^3)=a×b2×π/6, wherein a and b represent the longest diameter and the shortest diameter (mm), respectively), tumor-bearing mice with excessive or insufficient tumor volumes would be eliminated, and qualified animals were randomly divided into groups.
Experimental endpoint and analysis indicators: Example 5 of the present invention was administered 14 times, and the experiment was terminated on the 32nd day after the first treatment. The analysis indicators are:
(2) Determination of tumor weight and calculation of tumor inhibition rate (%)
When the experiment was terminated, the animals was euthanized according to the operating procedures of animal experiments, and dissected to collect the tumor mass, which was then weighted. The tumor inhibition rate (%) was calculated according to the following formula: […]
(3) Animal survival and weight changes during the experimental process.

[4] = system: Human multiple myeloma RPMI-8226 cell lines; assay: Pharmacodynamic experiment on subcutaneously transplanted tumor, RPMI-8226, in NOD/SCID mice; assay type: in vivo; conditions: 10 mg/kg i.v. three times a week; female NOD/SCID mice, day 32
Experimental: Establishment of subcutaneously transplanted tumor model: […] The cells in logarithmic growth phase were selected, and washed three times with PBS buffer under sterile conditions. The single cell suspension was diluted with PBS buffer to 7×10^7 cells/mL for future use. Prior to seeding, 0.1 mL of single cell suspension was taken, and then subcutaneously inoculated into the back of female NOD/SCID mice with a weight of >20 g. Grouping and treatment: When the volume of the tumor reached 100-200 mm^3 or above (the measurement and calculation method of tumor volume (TV): TV (mm^3)=a×b2×π/6, wherein a and b represent the longest diameter and the shortest diameter (mm), respectively), tumor-bearing mice with excessive or insufficient tumor volumes would be eliminated, and qualified animals were randomly divided into groups. […] “B” means Bortezomib; “D” means Dexamethasone; “L” means Lenalidomide. Experimental endpoint and analysis indicators: Example 5 of the present invention was administered 14 times, and the experiment was terminated on the 32nd day after the first treatment. The analysis indicators are: (2) Determination of tumor weight and calculation of tumor inhibition rate (%) When the experiment was terminated, according to the operating procedures of animal experiments, the animals was euthanized and dissected to collect the tumor mass, which was then weighted. The tumor inhibition rate (%) was calculated according to the following formula: [formula] (3) Animal survival and weight changes during the experimental process.

solubility thermodynamic ([1]; 1‰ (M/V) arginine solution in UP water, Arginine 1‰): 50 µg/mL | solubility thermodynamic ([1]; 1‰ (M/V) meglumine solution in UP water, Meglumine 1‰): 130 µg/mL | solubility thermodynamic ([1]; 3‰ (M/V) arginine solution in UP water, Arginine 3‰): 110 µg/mL | solubility thermodynamic ([1]; 3‰ (M/V) meglumine solution in UP water, Meglumine 3‰): 240 µg/mL | solubility thermodynamic ([1]; 5‰ (M/V) arginine solution in UP water, Arginine 5‰): 170 µg/mL | solubility thermodynamic ([1]; 5‰ (M/V) meglumine solution in UP water, Meglumine 5‰): 350 µg/mL | solubility thermodynamic ([1]; 8‰ (M/V) arginine solution in UP water, Arginine 8‰): 280 µg/mL | solubility thermodynamic ([1]; 8‰ (M/V) meglumine solution in UP water, Meglumine 8‰): 460 µg/mL | solubility thermodynamic ([1]; 10‰ (M/V) arginine solution in UP water, Arginine 10‰): 370 µg/mL | solubility thermodynamic ([1]; 10‰ (M/V) meglumine solution in UP water, Meglumine 10‰): 700 µg/mL | Drug purity (%) ([1]; Arginine 1‰): 100% | pH value ([1]; Arginine 1‰): 8.87 | Drug purity (%) ([1]; Arginine 3‰): 100% | pH value ([1]; Arginine 3‰): 9.30 | Drug purity (%) ([1]; Arginine 5‰): 100% | pH value ([1]; Arginine 5‰): 9.61 | Drug purity (%) ([1]; Arginine 8‰): 98.97% | pH value ([1]; Arginine 8‰): 9.76 | Drug purity (%) ([1]; Arginine 10‰): 99.24% | pH value ([1]; Arginine 10‰): 9.84 | Drug purity (%) ([1]; Meglumine 1‰): 100% | pH value ([1]; Meglumine 1‰): 9.65 | Drug purity (%) ([1]; Meglumine 3‰): 99.80% | pH value ([1]; Meglumine 3‰): 9.98 | Drug purity (%) ([1]; Meglumine 5‰): 96.55% | pH value ([1]; Meglumine 5‰): 10.22 | Drug purity (%) ([1]; Meglumine 8‰): 99.45% | pH value ([1]; Meglumine 8‰): 10.41 | Drug purity (%) ([1]; Meglumine 10‰): 99.07% | pH value ([1]; Meglumine 10‰): 10.42 | Drug concentration ([2]; HP-β-CD 5% (M/V)): 1850 µg/mL | Drug purity (%) ([2]; HP-β-CD 5% (M/V)): 99.21% | pH values ([2]; HP-β-CD 5% (M/V)): 2.42 | Storing at 4° C. for one day ([2]; HP-β-CD 5% (M/V)): Trace | Drug concentration ([2]; HP-β-CD 10% (M/V)): 2020 µg/mL | Drug purity (%) ([2]; HP-β-CD 10% (M/V)): 99.15% | pH values ([2]; HP-β-CD 10% (M/V)): 2.54 | Storing at 4° C. for one day ([2]; HP-β-CD 10% (M/V)): Trace | Drug concentration ([2]; HP-β-CD 15% (M/V)): 3160 µg/mL | Drug purity (%) ([2]; HP-β-CD 15% (M/V)): 99.08% | pH values ([2]; HP-β-CD 15% (M/V)): 2.55 | Storing at 4° C. for one day ([2]; HP-β-CD 15% (M/V)): Trace | Drug concentration ([2]; HP-β-CD 20% (M/V)): 4130 µg/mL | Drug purity (%) ([2]; HP-β-CD 20% (M/V)): 98.96% | pH values ([2]; HP-β-CD 20% (M/V)): 2.67 | Storing at 4° C. for one day ([2]; HP-β-CD 20% (M/V)): Trace | Drug concentration ([2]; HP-β-CD 25% (M/V)): 4520 µg/mL | Drug purity (%) ([2]; HP-β-CD 25% (M/V)): 98.24% | pH values ([2]; HP-β-CD 25% (M/V)): 2.7 | Storing at 4° C. for one day ([2]; HP-β-CD 25% (M/V)): Trace | Drug concentration ([2]; SBE-β-CD 5% (M/V)): 930 µg/mL | Drug purity (%) ([2]; SBE-β-CD 5% (M/V)): 99.78% | pH value ([2]; SBE-β-CD 5% (M/V)): 3.77 | Storing at 4° C. for one day ([2]; SBE-β-CD 5% (M/V)): Trace | Drug concentration ([2]; SBE-β-CD 10% (M/V)): 1180 µg/mL | Drug purity (%) ([2]; SBE-β-CD 10% (M/V)): 99.01% | pH value ([2]; SBE-β-CD 10% (M/V)): 3.71 | Storing at 4° C. for one day ([2]; SBE-β-CD 10% (M/V)): Trace | Drug concentration ([2]; SBE-β-CD 15% (M/V)): 1800 µg/mL | Drug purity (%) ([2]; SBE-β-CD 15% (M/V)): 99.35% | pH value ([2]; SBE-β-CD 15% (M/V)): 3.67 | Storing at 4° C. for one day ([2]; SBE-β-CD 15% (M/V)): Trace | Drug concentration ([2]; SBE-β-CD 20% (M/V)): 2220 µg/mL | Drug purity (%) ([2]; SBE-β-CD 20% (M/V)): 99.35% | pH value ([2]; SBE-β-CD 20% (M/V)): 3.64 | Storing at 4° C. for one day ([2]; SBE-β-CD 20% (M/V)): Trace | Drug concentration ([2]; SBE-β-CD 25% (M/V)): 2610 µg/mL | Drug purity (%) ([2]; SBE-β-CD 25% (M/V)): 99.17% | pH value ([2]; SBE-β-CD 25% (M/V)): 3.57 | Storing at 4° C. for one day ([2]; SBE-β-CD 25% (M/V)): Trace
SMILES: CN(Cc1nc2c(N3CCOCC3)nc(-c3ccc(N)cc3)nc2n1C)c1ncc(C(=O)NO)cn1 [API, purinostat mesylate]

Animal numbers End/Begining [3]: 7/7 | Animal number End/Beginning [4]: 6/6
SMILES: Cc1[nH]c2ccccc2c1CCNCc1ccc(/C=C/C(=O)NO)cc1 [LBH589]
Tumor inhibition rate (%) [3]: 76.92% | Weight of tumor mass X ± SD ([3]; in g (unit assumed)): 0.83 ± 0.38 | Tumor inhibition rate (%) [4]: 59.79% | Tumor weight (g) X ± SD [4]: 0.90 ± 0.37 g
